Measured values from patent publication US20020086278A1, “CHROMOGENIC MEDIA CONTAINING BLOOD OR HEMIN” (priority 1999, published 2002).
Where two headings read alike, the source gives them in different places.

How the values were obtained:
[1] = Color contrast of chromogen on blood plate
[2] = Precipitate of chromogen on pre-plated media; type: physicochemical; conditions: 50 μl DMSO solution on pre-plated media
Protocol: 50 μl of each chromogen solution was added to the surface of each of the following pre-plated media (one chromogen solution per plate):
The solution was dispersed using a spreader and allowed to dry 3-4 hours in a hood.

S. milleri (stmi) = experiment: Example 3: colony color on chromogenic TSA II with 5% sheep blood (chromogen in medium); type: cell-based; conditions: for Colony Color: stmi 6249, 21 h
cakr 34135 = experiment: as above; type: cell-based; conditions: CO2, 21 h
[3] = test system: Branhamella catarrhalis (brca); experiment: as above; type: cell-based; conditions: for Colony Color: CO2, 21 h
[4] = test system: Staphylococcus aureus (stau); experiment: as above; type: cell-based
[5] = test system: E. coli (non-O157) (esco); type: cell-based
[6] = test system: Serratia marcescens (sema); experiment: Example 3: colony color on chromogenic TSA II with 5% sheep blood (chromogen in medium); type: cell-based
[7] = test system: Entercoccus faecalis (enfa); experiment: as above; type: cell-based
S pyogenes (stpy) = experiment: as above; type: cell-based; conditions: for Colony Color: 21 h
[8] = test system: Klebsiella pneumoniae (klpn); experiment: as above; type: cell-based
55 strains = experiment: Example 3: color, hemolytic activity and growth over all 55 strains; type: cell-based; conditions: chromogenic TSA II
Source text: Steers, E. et al., Antibiot.

Salmonella spp. (sasp) = type: cell-based; conditions: for Colony Color: CO2, 21 h
[9] = test system: Aeromonas hydrophilia (aehy); experiment: Example 3: colony color on chromogenic TSA II with 5% sheep blood (chromogen in medium); type: cell-based; conditions: for Colony Color: CO2, 21 h
E. faecium (enfu) = experiment: as above; type: cell-based; conditions: for Colony Color: enfu 49032, 21 h
Candida albicans (caal) = experiment: as above; type: cell-based; conditions: for Colony Color: caal 10231, 24 h
[10] = test system: Pseudomonas aeruginosa (psae); experiment: as above; type: cell-based; conditions: for Colony Color: CO2, 21 h
S. pneumoniae (stpn) = experiment: as above; type: cell-based
[11] = test system: Citrobacter freundii (cifr); experiment: as above; type: cell-based; conditions: for Colony Color: CO2, 21 h
[12] = test system: Staphylococcus Coag Neg (step); experiment: as above; type: cell-based; conditions: for Colony Color: 21 h
milu 9341 = experiment: as above; type: cell-based; conditions: CO2, 21 h
[13] = test system: Streptococcus agalactiae (stag); experiment: as above; type: cell-based
[14] = chromogenic TSA II with 5% Sheep Blood, 0.1 g/l, 2 strains tested
[15] = chromogenic TSA II with 5% Sheep Blood, 0.1 g/l, 5 strains tested
[16] = chromogenic TSA II with 5% Sheep Blood, 0.1 g/l, 3 strains tested
[17] = chromogenic TSA II with 5% Sheep Blood, 0.1 g/l, 1 strain tested
[18] = chromogenic TSA II with 5% Sheep Blood, 0.1 g/l, 6 strains tested

Oc1c[nH]c2cc(Cl)ccc12 [6-chloro-3-indoxyl]
Absorption max (nm) [1]: 540 nm

O=C([O-])[C@H]1O[C@@H](Oc2c[nH]c3ccc(Br)c(Cl)c23)[C@H](O)[C@@H](O)[C@@H]1O.[Na+] [X-Glucuro(s), 5-Br-4-Cl-3-indolyl-β-D-glucuronide (sodium salt)]
Precipitate when spread / placed on the plated media [2]: remained clear

Magenta-caprylate [M-Cap]
Colony Color (Summary) (S. milleri (stmi); [14]): 0 | Colony Color (S. milleri (stmi); CO2): 0 | Colony Color (S. milleri (stmi); air): 0 | Colony Color (cakr 34135): 0 | Colony Color ([3]; brca 25238): 0 | Colony Color ([3]; brca 25240): 0 | Colony Color (Summary) [3, 14]: 0 | Colony Color (Summary) [4, 15]: 0 | Colony Color ([4]; stau 1006, CO2, 21 h): 0 | Colony Color ([4]; stau 1007, CO2, 21 h): 0 | Colony Color ([4]; stau 1008, CO2, 21 h): 0 | Colony Color ([4]; stau 1009, CO2, 21 h): 0 | Colony Color ([4]; stau 25923, CO2, 24 h): 0 | Colony Color ([4]; stau 25923, air, 24 h): 0 | Colony Color (Summary) [5, 16]: 0 | Colony Color ([5]; esco 11775, CO2, 21 h): 0 | Colony Color ([5]; esco 25922, CO2, 24 h): 0 | Colony Color ([5]; esco 25922, air, 24 h): 0 | Colony Color ([5]; esco 33605, CO2, 21 h): 0 | Colony Color (Summary) [6, 17]: 0 | Colony Color ([6]; sema 13880, CO2, 21 h): 0 | Colony Color (Summary) [7, 18]: 0 | Colony Color ([7]; enfa 597, CO2, 21 h): 0 | Colony Color ([7]; enfa 597, air, 21 h): 0 | Colony Color ([7]; enfa 10741, CO2, 21 h): 0 | Colony Color ([7]; enfa 10741, air, 21 h): 0 | Colony Color ([7]; enfa 12953, CO2, 21 h): 0 | Colony Color ([7]; enfa 12953, air, 21 h): 0 | Colony Color ([7]; enfa 14506, CO2, 21 h): 0 | Colony Color ([7]; enfa 14506, air, 21 h): 0 | Colony Color ([7]; enfa 29212, CO2, 21 h): 0 | Colony Color ([7]; enfa 29212, CO2, 24 h): 0 | Colony Color ([7]; enfa 29212, air, 21 h): 0 | Colony Color ([7]; enfa 29212, air, 24 h): 0 | Colony Color (Summary) (S pyogenes (stpy); [18]): 0 | Colony Color (S pyogenes (stpy); stpy 1027, CO2): 0 | Colony Color (S pyogenes (stpy); stpy 1028, CO2): 0 | Colony Color (S pyogenes (stpy); stpy 1029, CO2): 0 | Colony Color (S pyogenes (stpy); stpy 1030, CO2): 0 | Colony Color (S pyogenes (stpy); stpy 19615, CO2): 0 | Colony Color (S pyogenes (stpy); stpy 19615, air): 0 | Colony Color (S pyogenes (stpy); stpy 49117, CO2): 0 | Colony Color (S pyogenes (stpy); stpy 49117, air): 0 | Colony Color (S pyogenes (stpy); stpy 51339, CO2): 0 | Colony Color (S pyogenes (stpy); stpy 51339, air): 0 | Colony Color (Summary) [8, 16]: 0 | Colony Color ([8]; klpn 13883, CO2, 21 h): 0 | Colony Color ([8]; klpn 33495, CO2, 24 h): 0 | Colony Color ([8]; klpn 33495, air, 24 h): 0 | Colony Color ([8]; klpn 33606, CO2, 21 h): 0 | Activity (color) for most organisms (55 strains): inactive | Colony Color (Summary) (Salmonella spp. (sasp); [14]): 0 | Colony Color (Salmonella spp. (sasp); saty 19430): 0 | Colony Color (Salmonella spp. (sasp); satym 14028): 0 | Colony Color ([9]; aehy 7965): 0 | Colony Color ([9]; aehy 7966): 0 | Colony Color ([9]; aehy 49847): 0 | Colony Color (Summary) [9, 16]: 0 | Colony Color (Summary) (E. faecium (enfu); [17]): 0 | Colony Color (E. faecium (enfu); CO2): 0 | Colony Color (E. faecium (enfu); air): 0 | Colony Color (Candida albicans (caal); CO2): 0 | Colony Color (Candida albicans (caal); air): 0 | Colony Color (Summary) (Candida albicans (caal); [14]): 0 | Colony Color (Summary) [10, 16]: 0 | Colony Color ([10]; psae 9027): 0 | Colony Color ([10]; psae 15442): 0 | Colony Color ([10]; psae 33607): 0 | Colony Color (Summary) (S. pneumoniae (stpn); [18]): 0 | Colony Color (S. pneumoniae (stpn); stpn 1259, CO2, 21 h): 0 | Colony Color (S. pneumoniae (stpn); stpn 1260, CO2, 21 h): 0 | Colony Color (S. pneumoniae (stpn); stpn 1331, CO2, 21 h): 0 | Colony Color (S. pneumoniae (stpn); stpn 1628, CO2, 21 h): 0 | Colony Color (S. pneumoniae (stpn); stpn 6303, CO2, 24 h): 0 | Colony Color (S. pneumoniae (stpn); stpn 6303, air, 24 h): 0 | Colony Color (S. pneumoniae (stpn); stpn 6305, CO2, 24 h): 0 | Colony Color (S. pneumoniae (stpn); stpn 6305, air, 24 h): 0 | Colony Color (Summary) [11, 14]: 0 | Colony Color ([11]; cifr 8454): 0 | Colony Color ([11]; cifr 33128): 0 | Colony Color (Summary) [12, 15]: 0 | Colony Color ([12]; step 12228, CO2): 0 | Colony Color ([12]; step 12228, air): 0 | Colony Color ([12]; step cdc1, CO2): 0 | Colony Color ([12]; step cdc1, air): 0 | Colony Color ([12]; step cdc2, CO2): 0 | Colony Color ([12]; step cdc2, air): 0 | Colony Color ([12]; step cdc3, CO2): 0 | Colony Color ([12]; step cdc3, air): 0 | Colony Color ([12]; step cdc4, CO2): 0 | Colony Color ([12]; step cdc4, air): 0 | Colony Color (milu 9341): 0 | Colony Color (Summary) [13, 16]: 0 | Colony Color ([13]; stag 4768, CO2, 21 h): 0 | Colony Color ([13]; stag 4768, air, 21 h): 0 | Colony Color ([13]; stag 12386, CO2, 21 h): 0 | Colony Color ([13]; stag 12386, CO2, 24 h): 0 | Colony Color ([13]; stag 12386, air, 24 h): 0
